The record followed here is ChEMBL document CHEMBL3351403, “Lead identification of benzimidazolone and azabenzimidazolone arylsulfonamides as CC-chemokine receptor 4 (CCR4) antagonists” (Bioorg Med Chem, 2014).

Structures are written as SMILES.

By chromatographic logD is commonly meant lipophilicity estimated from chromatographic retention. Read a high chromatographic logD as higher lipophilicity.

This data set is described as follows: Lipophilicity, log D of the compound at pH 7.4 by chromatography. The data set is classed as physicochemical. The conditions noted are these: buffer.
Turning to `COc1cccc2c1c(NS(=O)(=O)c1cccc(Cl)c1Cl)nn2C`, the chromatographic logD came to 5.3. `COc1cc2[nH]c(=O)[nH]c2cc1NS(=O)(=O)c1cccc(Cl)c1Cl`: the chromatographic logD amounted to 3.2.

As to `COc1cc2c(cc1NS(=O)(=O)c1cccc(Cl)c1Cl)[nH]c(=O)n2C`, the chromatographic logD is 3.8. The result for `COc1cc2[nH]c(=O)n(C)c2cc1NS(=O)(=O)c1cccc(Cl)c1Cl` reads 3.7; that for `COc1cc2c(cc1NS(=O)(=O)c1cccc(Cl)c1Cl)n(C)c(=O)n2C`, 4.4; that for `COc1cc2c(cc1NS(=O)(=O)c1cccc(Cl)c1Cl)[nH]c(=O)n2CC(N)=O`, 2.5. The result for `COc1cc2[nH]c(=O)n(CC(N)=O)c2cc1NS(=O)(=O)c1cccc(Cl)c1Cl` reads 2.4; that for `COc1cc2c(cc1NS(=O)(=O)c1cccc(Cl)c1Cl)[nH]c(=O)n2C(C)C`, 4.7. `COc1cc2c(cc1NS(=O)(=O)c1cccc(Cl)c1Cl)[nH]c(=O)n2C1COC1` yielded a chromatographic logD of 4.6. As to `CCCn1c(=O)[nH]c2cc(NS(=O)(=O)c3cccc(Cl)c3Cl)c(OC)cc21`, the chromatographic logD worked out at 3.2.

As to `COc1cc2c(cc1NS(=O)(=O)c1cccc(Cl)c1Cl)[nH]c(=O)n2CCN(C)C`, the chromatographic logD is 2.6.

`COc1cc2c(cc1NS(=O)(=O)c1cccc(Cl)c1Cl)[nH]c(=O)n2C(CO)CO` came in with a chromatographic logD of 2.1.

As to `COc1cc2c(cc1NS(=O)(=O)c1cccc(Cl)c1Cl)[nH]c(=O)n2C1CNC1`, the chromatographic logD was found to be 3. For `COc1cc2c(cc1NS(=O)(=O)c1cccc(Cl)c1Cl)[nH]c(=O)n2C1CN(C(C)=O)C1`, the chromatographic logD worked out at 3.7. The compound `COc1cc2[nH]c(=O)[nH]c2nc1NS(=O)(=O)c1cccc(Cl)c1Cl` registered a chromatographic logD of 2.4. Take `COc1nc2[nH]c(=O)[nH]c2cc1NS(=O)(=O)c1cccc(Cl)c1Cl`: the chromatographic logD came to 3.2.
